{"source": "the Kinase Knowledgebase extract (Sharma et al. 2016)", "data": [{"biological_target": "MAPK14 (UniProt Q16539)", "sequence (Q16539 whole entry, looked up)": "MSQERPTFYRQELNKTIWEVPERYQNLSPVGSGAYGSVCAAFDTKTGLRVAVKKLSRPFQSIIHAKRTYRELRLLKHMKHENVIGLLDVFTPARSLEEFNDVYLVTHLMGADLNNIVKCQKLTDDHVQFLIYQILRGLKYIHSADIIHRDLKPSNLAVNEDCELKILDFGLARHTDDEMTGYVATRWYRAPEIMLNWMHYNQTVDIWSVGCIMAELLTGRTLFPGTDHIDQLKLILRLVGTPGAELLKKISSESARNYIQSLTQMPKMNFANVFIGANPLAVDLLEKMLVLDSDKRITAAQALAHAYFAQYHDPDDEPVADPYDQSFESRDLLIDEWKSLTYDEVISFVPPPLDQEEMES", "experiment": "Inhibition of MAPK14 Kinase Activity", "units": {"IC50": "µM"}, "values": [{"smiles": "CC(C)S(=O)(=O)n1c(N)nc2ccc(-c3c(-c4ccc(F)cc4)ncn3C3CC3)cc21", "IC50": "≤ 5"}, {"smiles": "CC(C)S(=O)(=O)n1c(N)nc2ccc(-c3nc(C4CCN(Cc5ccccn5)CC4)[nH]c3-c3ccccc3)cc21", "IC50": "≤ 5"}, {"smiles": "CC(C)S(=O)(=O)n1c(N)nc2ccc(-c3nc(-c4ccc(F)cc4F)[nH]c3-c3cc(F)cc(F)c3)cc21", "IC50": "≤ 5"}, {"smiles": "CC(C)S(=O)(=O)n1c(N)nc2ccc(-c3nc(CN4CCCCC4)[nH]c3-c3ccccc3)cc21", "IC50": "≤ 5"}, {"smiles": "CC(C)S(=O)(=O)n1c(N)nc2ccc(-c3nc(-c4cccc(OCCN5CCCC5)c4)[nH]c3-c3ccccc3)cc21", "IC50": "≤ 5"}, {"smiles": "CC(C)S(=O)(=O)n1c(N)nc2ccc(-c3c(-c4ccccc4)ncn3Cc3ccncc3)cc21", "IC50": "≤ 5"}, {"smiles": "CC(C)CN1CCC(c2nc(-c3ccc4nc(N)n(S(=O)(=O)C(C)C)c4c3)c(-c3ccc(F)cc3)[nH]2)CC1", "IC50": "≤ 5"}, {"smiles": "CC(C)S(=O)(=O)n1c(N)nc2ccc(-c3nc(-c4ccc(OCCN5CCCCC5)cc4)[nH]c3-c3ccccc3)cc21", "IC50": "≤ 5"}, {"smiles": "CC(C)S(=O)(=O)n1c(N)nc2ccc(-c3nc(-c4ccc(F)cc4F)[nH]c3-c3ccccc3)cc21", "IC50": "≤ 5"}, {"smiles": "CC(C)S(=O)(=O)n1c(N)nc2ccc(-c3nc(C4CCN(CCN(C)C)CC4)[nH]c3-c3ccccc3)cc21", "IC50": "≤ 5"}, {"smiles": "COCCn1cnc(-c2ccccc2)c1-c1ccc2nc(N)n(S(=O)(=O)C(C)C)c2c1", "IC50": "≤ 5"}, {"smiles": "CC(C)S(=O)(=O)n1c(N)nc2ccc(-c3c(-c4ccccc4)ncn3C3CCC(N)CC3)cc21", "note": "(centres undefined)", "IC50": "≤ 5"}, {"smiles": "COc1ccc(Cn2cnc(-c3ccccc3)c2-c2ccc3ncn(S(=O)(=O)C(C)C)c3c2)cc1", "IC50": "≤ 5"}, {"smiles": "CC(C)S(=O)(=O)n1c(N)nc2ccc(-c3nc(C4CC4)[nH]c3-c3ccc(F)cc3)cc21", "IC50": "≤ 5"}, {"smiles": "CCc1nc(-c2ccccc2F)c(-c2ccc3nc(N)n(S(=O)(=O)C(C)C)c3c2)n1C1CC1", "IC50": "≤ 5"}, {"smiles": "CC(C)S(=O)(=O)n1c(N)nc2ccc(-c3nc(-c4ccc(C(F)(F)F)cc4)[nH]c3-c3ccccc3)cc21", "IC50": "≤ 5"}, {"smiles": "CC(C)S(=O)(=O)n1c(N)nc2ccc(-c3c(-c4ccc(F)cc4F)ncn3[C@H]3CC[C@H](O)CC3)cc21", "IC50": "≤ 5"}, {"smiles": "CC(C)S(=O)(=O)n1c(N)nc2ccc(-c3c(-c4ccccc4)ncn3CCCN3CCOCC3)cc21", "IC50": "≤ 5"}, {"smiles": "CC(C)S(=O)(=O)n1c(CCN)nc2ccc(-c3nc(-c4c(F)cccc4F)[nH]c3-c3ccccc3)cc21", "IC50": "≤ 5"}, {"smiles": "CC(C)S(=O)(=O)n1c(N)nc2ccc(-c3c(-c4ccsc4)ncn3[C@H]3CC[C@H](O)CC3)cc21", "IC50": "≤ 5"}, {"smiles": "CC(C)S(=O)(=O)n1c(N)nc2ccc(-c3c(-c4ccccc4)ncn3C3CC3)cc21", "IC50": "≤ 5"}, {"smiles": "CC(C)S(=O)(=O)n1c(N)nc2ccc(-c3nc(-c4ccc([N+](=O)[O-])cc4F)[nH]c3-c3ccccc3)cc21", "IC50": "≤ 5"}, {"smiles": "CC(C)S(=O)(=O)n1c(N)nc2ccc(-c3nc(-c4cccc(OCCN(C)C)c4)[nH]c3-c3ccccc3)cc21", "IC50": "≤ 5"}, {"smiles": "CC(C)S(=O)(=O)n1c(N)nc2ccc(-c3c(-c4cccc(F)c4F)ncn3[C@H]3CC[C@H](O)CC3)cc21", "IC50": "≤ 5"}, {"smiles": "Cc1nc(-c2ccc3nc(N)n(S(=O)(=O)C(C)C)c3c2)c(-c2ccccc2)[nH]1", "IC50": "≤ 5"}, {"smiles": "CC(C)S(=O)(=O)n1c(N)nc2ccc(-c3nc(-c4ccc(N)s4)[nH]c3-c3ccccc3)cc21", "IC50": "≤ 5"}, {"smiles": "Nc1nc2ccc(-c3nc(-c4c(F)cccc4F)[nH]c3-c3ccccc3)cc2[nH]1", "IC50": "≤ 5"}, {"smiles": "CC(C)S(=O)(=O)n1c(N)nc2ccc(-c3nc(-c4cccc(OCCC5=CC=CNC=C5)c4)[nH]c3-c3ccccc3)cc21", "IC50": "≤ 5"}, {"smiles": "CC(C)S(=O)(=O)n1c(N)nc2ccc(-c3c(-c4ccccc4F)ncn3[C@H]3CC[C@H](O)CC3)cc21", "IC50": "≤ 5"}, {"smiles": "CC(C)S(=O)(=O)n1c(N)nc2ccc(-c3nc(-c4ccc(OCCCN(C)C)c(F)c4)[nH]c3-c3ccccc3)cc21", "IC50": "≤ 5"}, {"smiles": "Cc1nc(-c2ccc3nc(N)n(S(=O)(=O)C(C)C)c3c2)c(-c2ccc(F)cc2F)n1Cc1ccccc1", "IC50": "≤ 5"}, {"smiles": "NCCc1nc2ccc(-c3nc(-c4c(F)cccc4F)[nH]c3-c3ccccc3)cc2[nH]1", "IC50": "≤ 5"}, {"smiles": "CC(C)S(=O)(=O)n1c(N)nc2ccc(-c3c(-c4ccccc4)ncn3C3CCC4(CC3)OCCO4)cc21", "IC50": "≤ 5"}, {"smiles": "CCn1cnc(-c2ccc(F)cc2)c1-c1ccc2nc(N)n(S(=O)(=O)C(C)C)c2c1", "IC50": "≤ 5"}, {"smiles": "CCN1CCC(c2nc(-c3ccc4nc(N)n(S(=O)(=O)C(C)C)c4c3)c(-c3ccccc3)[nH]2)CC1", "IC50": "≤ 5"}, {"smiles": "CCc1ccc(-c2nc(-c3ccc4nc(N)n(S(=O)(=O)C(C)C)c4c3)c(-c3ccc(F)cc3)[nH]2)s1", "IC50": "≤ 5"}, {"smiles": "CC(C)S(=O)(=O)n1c(N)nc2ccc(-c3nc(-c4ccc(NS(C)(=O)=O)cc4)[nH]c3-c3ccccc3)cc21", "IC50": "≤ 5"}, {"smiles": "Cc1nc(-c2ccccc2)c(-c2ccc3nc(N)n(S(=O)(=O)C(C)C)c3c2)s1", "IC50": "≤ 5"}, {"smiles": "CC(C)S(=O)(=O)n1c(N)nc2ccc(-c3nc[nH]c3-c3cccc(F)c3)cc21", "IC50": "≤ 5"}, {"smiles": "CC(C)S(=O)(=O)n1c(N)nc2ccc(-c3nc(C(C)(C)C)[nH]c3-c3ccc(F)cc3)cc21", "IC50": "≤ 5"}, {"smiles": "CC(C)S(=O)(=O)n1c(N)nc2ccc(-c3nc(-c4ccccc4F)[nH]c3-c3ccccc3)cc21", "IC50": "≤ 5"}, {"smiles": "CC(C)S(=O)(=O)n1c(N)nc2ccc(-c3nc(-c4ccccc4N4CCN(C)CC4)[nH]c3-c3ccccc3)cc21", "IC50": "≤ 5"}, {"smiles": "CC(C)S(=O)(=O)n1c(N)nc2ccc(-c3c(-c4ccccc4F)nc(C#CCCO)n3C3CC3)cc21", "IC50": "≤ 5"}, {"smiles": "CC(C)S(=O)(=O)n1c(N)nc2ccc(-c3c(-c4ccccc4)ncn3Cc3cccc(F)c3)cc21", "IC50": "≤ 5"}, {"smiles": "COc1ccc(-c2nc(-c3ccc4nc(N)n(S(=O)(=O)C(C)C)c4c3)c(-c3ccccc3)[nH]2)cc1", "IC50": "≤ 5"}, {"smiles": "CC(C)S(=O)(=O)n1c(N)nc2ccc(-c3cn[nH]c3-c3ccccc3)cc21", "IC50": "≤ 5"}, {"smiles": "CC(C)S(=O)(=O)n1c(N)nc2ccc(-c3c(-c4ccccc4)ncn3-c3ccc(N)cc3)cc21", "IC50": "≤ 5"}, {"smiles": "CC(C)S(=O)(=O)n1c(N)nc2ccc(-c3nc(C(F)(F)F)[nH]c3-c3ccccc3)cc21", "IC50": "≤ 5"}, {"smiles": "CC(C)S(=O)(=O)n1c(N)nc2ccc(-c3nc(-c4cccs4)[nH]c3-c3ccc(C(F)(F)F)cc3)cc21", "IC50": "≤ 5"}, {"smiles": "CC(C)S(=O)(=O)n1c(N)nc2ccc(-c3nc(-c4ccc([N+](=O)[O-])cc4)[nH]c3-c3ccccc3)cc21", "IC50": "≤ 5"}, {"smiles": "CC(C)S(=O)(=O)n1c(N)nc2ccc(-c3nc(-c4cc(F)ccc4F)[nH]c3-c3ccccc3)cc21", "IC50": "≤ 5"}, {"smiles": "CC(C)S(=O)(=O)n1c(N)nc2ccc(-c3c(-c4ccccc4)ncn3Cc3cccnc3)cc21", "IC50": "≤ 5"}, {"smiles": "CC(C)S(=O)(=O)n1c(N)nc2ccc(-c3[nH]n(-c4cc(F)ccc4F)c(=O)c3-c3ccccc3)cc21", "IC50": "≤ 5"}, {"smiles": "CC(C)S(=O)(=O)n1c(N)nc2ccc(-c3c(-c4ccccc4F)ncn3Cc3cccnc3)cc21", "IC50": "≤ 5"}, {"smiles": "CC(C)S(=O)(=O)n1c(N)nc2ccc(-c3nc(-c4cccs4)[nH]c3-c3ccccc3)cc21", "IC50": "≤ 5"}, {"smiles": "CC(C)S(=O)(=O)n1c(N)nc2ccc(-c3nc(-c4ccc5c(c4)OCO5)[nH]c3-c3ccccc3)cc21", "IC50": "≤ 5"}, {"smiles": "CC(C)S(=O)(=O)n1c(N)nc2ccc(-c3c(-c4cccc(F)c4)ncn3[C@H]3CC[C@H](O)CC3)cc21", "IC50": "≤ 5"}, {"smiles": "CC(C)S(=O)(=O)n1c(N)nc2ccc(-c3[nH]n(-c4ccc([N+](=O)[O-])cc4)c(=O)c3-c3ccc(F)cc3)cc21", "IC50": "≤ 5"}, {"smiles": "CC(C)S(=O)(=O)n1c(N)nc2ccc(-c3nc[nH]c3-c3cccc(C(F)(F)F)c3)cc21", "IC50": "≤ 5"}, {"smiles": "CC(C)S(=O)(=O)n1c(N)nc2ccc(-c3c(-c4ccc(F)cc4)ncn3[C@H]3CC[C@H](O)CC3)cc21", "IC50": "≤ 5"}, {"smiles": "CC(C)S(=O)(=O)n1c(N)nc2ccc(-c3c(-c4ccc(F)cc4)ncn3C3CCCC3)cc21", "IC50": "≤ 5"}, {"smiles": "Cc1ccc(-c2nc(-c3ccc4nc(N)n(S(=O)(=O)C(C)C)c4c3)c(-c3ccccc3)[nH]2)cc1", "IC50": "≤ 5"}, {"smiles": "Cc1cc(-c2ccc3nc(N)n(S(=O)(=O)C(C)C)c3c2)n(-c2ccccc2)n1", "IC50": "≤ 5"}, {"smiles": "CC(C)S(=O)(=O)n1c(N)nc2ccc(-c3nc(-c4c(F)cccc4F)oc3-c3ccccc3)cc21", "IC50": "≤ 5"}, {"smiles": "CC(C)S(=O)(=O)n1c(N)nc2ccc(-c3nc(C4CCNCC4)[nH]c3-c3ccc(F)cc3)cc21", "IC50": "≤ 5"}, {"smiles": "CC(C)CN1CCC(c2nc(-c3ccc4nc(N)n(S(=O)(=O)C(C)C)c4c3)c(-c3ccccc3)[nH]2)CC1", "IC50": "≤ 5"}, {"smiles": "CC(C)n1cnc(-c2ccc(F)cc2)c1-c1ccc2nc(N)n(S(=O)(=O)C(C)C)c2c1", "IC50": "≤ 5"}, {"smiles": "CC(C)S(=O)(=O)n1c(N)nc2ccc(-c3nc(-c4ccc(OC(F)(F)F)cc4)[nH]c3-c3ccccc3)cc21", "IC50": "≤ 5"}, {"smiles": "Nc1nc2ccc(-c3nc[nH]c3-c3ccccc3)cc2s1", "IC50": "≤ 5"}, {"smiles": "CC(C)S(=O)(=O)n1c(N)nc2ccc(-c3c(-c4ccccc4F)nc(-c4ccc(F)cc4F)n3C3CC3)cc21", "IC50": "≤ 5"}, {"smiles": "CC(C)S(=O)(=O)n1c(N)nc2ccc(-c3nc(-c4c(F)cccc4Cl)[nH]c3-c3ccc(F)cc3)cc21", "IC50": "≤ 5"}, {"smiles": "CC1=CC2=NC(c3ccccc3)C(c3ccc4nc(N)n(S(=O)(=O)C(C)C)c4c3)N2C=C1", "note": "(centres undefined)", "IC50": "≤ 5"}, {"smiles": "CC(C)S(=O)(=O)n1c(N)nc2ccc(-c3nc(COCc4ccccc4)[nH]c3-c3ccccc3)cc21", "IC50": "≤ 5"}, {"smiles": "CC(C)S(=O)(=O)n1c(N)nc2ccc(-c3nc(C4CCOCC4)[nH]c3-c3ccc(F)cc3)cc21", "IC50": "≤ 5"}, {"smiles": "CC(C)S(=O)(=O)n1c(N)nc2ccc(-c3nc(-c4ccncc4)[nH]c3-c3ccccc3)cc21", "IC50": "≤ 5"}, {"smiles": "Clc1nc2ccc(-c3c(-c4ccccc4)ncn3C3CCCCC3)cc2s1", "IC50": "≤ 5"}, {"smiles": "CC(C)S(=O)(=O)n1c(N)nc2ccc(-c3c(-c4ccccc4F)nc(N)n3C3CC3)cc21", "IC50": "≤ 5"}, {"smiles": "CC(C)S(=O)(=O)n1c(N)nc2ccc(-c3nc(C4CCCCC4)[nH]c3-c3ccc(F)cc3)cc21", "IC50": "≤ 5"}, {"smiles": "CC(C)S(=O)(=O)n1c(N)nc2ccc(-c3nc(C=O)[nH]c3-c3ccccc3)cc21", "IC50": "≤ 5"}]}]}
